From ChEMBL document CHEMBL4507291 (2021)

Columns and labels:
[1] = target: Serine/threonine-protein kinase ULK1 (Homo sapiens) (UniProt O75385)
[2] = target: Serine/threonine-protein kinase PLK3 (Homo sapiens) (UniProt Q9H4B4)
[3] = target: T1, 5-hydroxytryptamine receptor 3A (Homo sapiens) (UniProt P46098); settings: Compound concentration 10.0 uM
T1 sequence (whole entry): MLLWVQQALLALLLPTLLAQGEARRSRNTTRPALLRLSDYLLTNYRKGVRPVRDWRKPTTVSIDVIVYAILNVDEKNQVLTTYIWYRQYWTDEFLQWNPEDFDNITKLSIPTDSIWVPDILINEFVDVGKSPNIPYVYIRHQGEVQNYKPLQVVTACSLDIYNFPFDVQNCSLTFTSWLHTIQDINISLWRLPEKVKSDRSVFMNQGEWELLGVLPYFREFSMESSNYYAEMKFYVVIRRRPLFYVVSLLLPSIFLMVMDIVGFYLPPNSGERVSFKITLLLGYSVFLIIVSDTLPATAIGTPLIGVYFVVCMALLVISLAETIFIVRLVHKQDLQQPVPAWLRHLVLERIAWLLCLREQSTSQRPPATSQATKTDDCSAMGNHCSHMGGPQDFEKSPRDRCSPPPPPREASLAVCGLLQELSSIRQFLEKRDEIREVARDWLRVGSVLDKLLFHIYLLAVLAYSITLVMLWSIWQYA

[4] = test system: ALK tyrosine kinase receptor (Homo sapiens), Q9UM73 [C1156Y]
[5] = target: Tyrosine-protein kinase receptor Tie-1 (Homo sapiens) (UniProt P35590)
[6] = test system: Tyrosine-protein kinase ABL1 (Homo sapiens), P00519 [Q252H]
[7] = target: Death-associated protein kinase 1 (Homo sapiens) (UniProt P53355)
[8] = target: T2, Muscle, skeletal receptor tyrosine-protein kinase (Homo sapiens) (UniProt O15146)
T2 sequence (whole entry): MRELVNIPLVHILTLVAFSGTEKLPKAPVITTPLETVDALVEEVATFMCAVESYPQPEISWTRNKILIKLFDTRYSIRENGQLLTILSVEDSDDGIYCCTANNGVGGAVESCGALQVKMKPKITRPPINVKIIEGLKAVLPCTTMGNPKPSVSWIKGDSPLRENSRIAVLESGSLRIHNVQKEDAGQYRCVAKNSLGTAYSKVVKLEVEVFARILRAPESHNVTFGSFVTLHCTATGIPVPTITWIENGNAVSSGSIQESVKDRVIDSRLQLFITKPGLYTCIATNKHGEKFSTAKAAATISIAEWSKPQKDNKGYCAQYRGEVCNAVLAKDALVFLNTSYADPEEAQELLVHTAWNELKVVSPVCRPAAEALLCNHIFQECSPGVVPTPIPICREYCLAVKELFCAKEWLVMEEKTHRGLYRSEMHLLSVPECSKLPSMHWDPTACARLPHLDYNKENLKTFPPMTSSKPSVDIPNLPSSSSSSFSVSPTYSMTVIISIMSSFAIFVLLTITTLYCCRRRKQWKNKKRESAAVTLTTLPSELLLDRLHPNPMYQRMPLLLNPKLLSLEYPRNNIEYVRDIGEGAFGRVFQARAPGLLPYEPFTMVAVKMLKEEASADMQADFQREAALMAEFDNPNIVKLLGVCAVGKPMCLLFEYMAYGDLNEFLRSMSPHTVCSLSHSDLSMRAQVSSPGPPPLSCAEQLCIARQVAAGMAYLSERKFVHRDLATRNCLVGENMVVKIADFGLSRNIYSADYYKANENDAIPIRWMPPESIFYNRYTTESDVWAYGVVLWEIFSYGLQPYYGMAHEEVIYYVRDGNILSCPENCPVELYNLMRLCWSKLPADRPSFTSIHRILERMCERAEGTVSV

[9] = target: Activin receptor type-2B (Homo sapiens) (UniProt Q13705)
[10] = target: Tyrosine-protein kinase Lyn (Homo sapiens) (UniProt P07948)
[11] = target: Cyclin-dependent kinase-like 5 (Homo sapiens) (UniProt O76039)
[12] = target: Mitogen-activated protein kinase kinase kinase 12 (Homo sapiens) (UniProt Q12852)
[13] = target: T3, Alpha-1D adrenergic receptor (Homo sapiens) (UniProt P25100); settings: Compound concentration 10.0 uM
T3 sequence (whole entry): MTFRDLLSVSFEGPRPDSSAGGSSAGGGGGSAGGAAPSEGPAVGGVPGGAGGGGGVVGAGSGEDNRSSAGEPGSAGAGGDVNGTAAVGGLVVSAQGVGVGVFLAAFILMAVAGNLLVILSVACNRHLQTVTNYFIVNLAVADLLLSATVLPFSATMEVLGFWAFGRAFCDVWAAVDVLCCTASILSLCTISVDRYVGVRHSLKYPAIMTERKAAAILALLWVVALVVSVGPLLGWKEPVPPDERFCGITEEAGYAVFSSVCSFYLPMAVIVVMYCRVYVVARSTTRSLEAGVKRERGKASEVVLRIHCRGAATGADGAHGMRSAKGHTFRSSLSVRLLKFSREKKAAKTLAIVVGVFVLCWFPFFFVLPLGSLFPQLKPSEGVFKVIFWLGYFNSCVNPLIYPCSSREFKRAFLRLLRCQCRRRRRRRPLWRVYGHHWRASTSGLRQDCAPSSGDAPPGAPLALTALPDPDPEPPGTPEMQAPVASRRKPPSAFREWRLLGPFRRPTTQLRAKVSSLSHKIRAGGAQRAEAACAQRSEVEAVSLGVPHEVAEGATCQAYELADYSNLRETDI

[14] = target: Insulin-like growth factor 1 receptor (Homo sapiens) (UniProt P08069)
[15] = target: Activin receptor type-1-like (Homo sapiens) (UniProt P37023)
[16] = target: Serine/threonine-protein kinase Nek7 (Homo sapiens) (UniProt Q8TDX7)
[17] = target: 5-hydroxytryptamine receptor 2B (Homo sapiens, UniProt P41595); settings: Compound concentration 10.0 uM
[18] = test system: Epidermal growth factor receptor (Homo sapiens), P00533 [L858R]
[19] = target: TRAF2 and NCK-interacting protein kinase (Homo sapiens) (UniProt Q9UKE5)
[20] = Compound concentration 1000.0 nM
[21] = Compound concentration 100.0 nM

Chain of Death-associated protein kinase 1 (Homo sapiens) (P53355 whole entry, looked up): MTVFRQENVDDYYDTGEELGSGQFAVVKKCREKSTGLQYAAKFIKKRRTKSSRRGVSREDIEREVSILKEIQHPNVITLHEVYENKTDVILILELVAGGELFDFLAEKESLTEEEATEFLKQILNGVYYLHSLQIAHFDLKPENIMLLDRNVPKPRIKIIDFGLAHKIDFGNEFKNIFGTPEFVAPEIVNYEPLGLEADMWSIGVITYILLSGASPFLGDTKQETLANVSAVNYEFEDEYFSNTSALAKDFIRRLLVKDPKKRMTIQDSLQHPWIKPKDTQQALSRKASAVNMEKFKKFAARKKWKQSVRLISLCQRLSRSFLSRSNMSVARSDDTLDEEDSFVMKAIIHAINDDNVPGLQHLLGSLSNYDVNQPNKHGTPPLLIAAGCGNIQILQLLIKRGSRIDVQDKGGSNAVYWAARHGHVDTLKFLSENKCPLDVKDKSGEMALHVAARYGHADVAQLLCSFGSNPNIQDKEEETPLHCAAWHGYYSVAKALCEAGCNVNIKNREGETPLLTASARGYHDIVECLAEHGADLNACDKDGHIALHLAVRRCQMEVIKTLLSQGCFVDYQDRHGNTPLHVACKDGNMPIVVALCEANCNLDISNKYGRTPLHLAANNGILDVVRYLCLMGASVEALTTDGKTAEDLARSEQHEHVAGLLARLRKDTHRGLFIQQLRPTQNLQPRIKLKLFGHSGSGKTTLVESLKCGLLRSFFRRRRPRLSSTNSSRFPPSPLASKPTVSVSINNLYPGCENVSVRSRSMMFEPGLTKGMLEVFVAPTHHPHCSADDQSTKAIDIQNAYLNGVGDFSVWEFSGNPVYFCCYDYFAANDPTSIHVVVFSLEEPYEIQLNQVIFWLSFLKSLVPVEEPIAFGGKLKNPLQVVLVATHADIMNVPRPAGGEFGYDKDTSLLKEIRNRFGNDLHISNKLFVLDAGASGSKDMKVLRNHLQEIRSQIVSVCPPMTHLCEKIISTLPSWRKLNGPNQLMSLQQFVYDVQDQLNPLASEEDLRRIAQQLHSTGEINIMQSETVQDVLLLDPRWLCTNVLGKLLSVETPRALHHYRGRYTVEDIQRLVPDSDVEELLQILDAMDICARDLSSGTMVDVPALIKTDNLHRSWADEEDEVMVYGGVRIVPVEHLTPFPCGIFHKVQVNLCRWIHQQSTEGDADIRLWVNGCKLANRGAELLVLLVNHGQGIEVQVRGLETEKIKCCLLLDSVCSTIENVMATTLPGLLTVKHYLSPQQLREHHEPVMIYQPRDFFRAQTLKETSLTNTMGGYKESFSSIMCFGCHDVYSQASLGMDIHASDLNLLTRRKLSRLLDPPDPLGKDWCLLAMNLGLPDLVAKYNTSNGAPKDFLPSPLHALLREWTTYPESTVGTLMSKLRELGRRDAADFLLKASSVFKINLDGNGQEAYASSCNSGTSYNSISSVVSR
Chain of Serine/threonine-protein kinase PLK3 (Homo sapiens) (Q9H4B4 whole entry, looked up): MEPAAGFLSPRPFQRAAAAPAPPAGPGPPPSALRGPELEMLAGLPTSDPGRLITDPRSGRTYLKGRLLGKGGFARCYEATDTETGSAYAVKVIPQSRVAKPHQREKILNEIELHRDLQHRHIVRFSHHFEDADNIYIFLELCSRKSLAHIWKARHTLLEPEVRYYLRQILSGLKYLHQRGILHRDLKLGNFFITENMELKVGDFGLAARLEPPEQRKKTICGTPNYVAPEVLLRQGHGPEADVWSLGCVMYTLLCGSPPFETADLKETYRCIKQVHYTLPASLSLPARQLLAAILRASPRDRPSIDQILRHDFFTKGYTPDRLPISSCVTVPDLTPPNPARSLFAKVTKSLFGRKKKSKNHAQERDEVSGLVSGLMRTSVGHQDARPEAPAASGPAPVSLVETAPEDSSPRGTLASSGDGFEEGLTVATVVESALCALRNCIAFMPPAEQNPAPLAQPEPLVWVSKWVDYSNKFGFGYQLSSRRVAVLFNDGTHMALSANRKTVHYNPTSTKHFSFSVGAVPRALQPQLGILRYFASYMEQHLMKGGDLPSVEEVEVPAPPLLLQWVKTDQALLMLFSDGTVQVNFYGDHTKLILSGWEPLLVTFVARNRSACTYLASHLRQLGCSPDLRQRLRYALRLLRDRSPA
Chain of 5-hydroxytryptamine receptor 2B (P41595 whole entry): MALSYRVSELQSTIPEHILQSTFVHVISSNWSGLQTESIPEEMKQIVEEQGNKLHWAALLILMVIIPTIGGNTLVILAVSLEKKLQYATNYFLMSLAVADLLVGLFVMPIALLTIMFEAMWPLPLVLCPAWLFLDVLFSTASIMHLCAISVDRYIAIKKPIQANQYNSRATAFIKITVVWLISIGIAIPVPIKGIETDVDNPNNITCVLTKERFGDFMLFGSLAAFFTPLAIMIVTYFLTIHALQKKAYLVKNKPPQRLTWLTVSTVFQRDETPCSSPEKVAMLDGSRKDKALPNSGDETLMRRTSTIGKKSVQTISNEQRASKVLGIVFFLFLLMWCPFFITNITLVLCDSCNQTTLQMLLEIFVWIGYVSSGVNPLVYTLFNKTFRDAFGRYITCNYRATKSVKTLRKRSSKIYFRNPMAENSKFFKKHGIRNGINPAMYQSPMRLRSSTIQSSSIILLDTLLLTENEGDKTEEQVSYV
Chain of Mitogen-activated protein kinase kinase kinase 12 (Homo sapiens) (Q12852 whole entry): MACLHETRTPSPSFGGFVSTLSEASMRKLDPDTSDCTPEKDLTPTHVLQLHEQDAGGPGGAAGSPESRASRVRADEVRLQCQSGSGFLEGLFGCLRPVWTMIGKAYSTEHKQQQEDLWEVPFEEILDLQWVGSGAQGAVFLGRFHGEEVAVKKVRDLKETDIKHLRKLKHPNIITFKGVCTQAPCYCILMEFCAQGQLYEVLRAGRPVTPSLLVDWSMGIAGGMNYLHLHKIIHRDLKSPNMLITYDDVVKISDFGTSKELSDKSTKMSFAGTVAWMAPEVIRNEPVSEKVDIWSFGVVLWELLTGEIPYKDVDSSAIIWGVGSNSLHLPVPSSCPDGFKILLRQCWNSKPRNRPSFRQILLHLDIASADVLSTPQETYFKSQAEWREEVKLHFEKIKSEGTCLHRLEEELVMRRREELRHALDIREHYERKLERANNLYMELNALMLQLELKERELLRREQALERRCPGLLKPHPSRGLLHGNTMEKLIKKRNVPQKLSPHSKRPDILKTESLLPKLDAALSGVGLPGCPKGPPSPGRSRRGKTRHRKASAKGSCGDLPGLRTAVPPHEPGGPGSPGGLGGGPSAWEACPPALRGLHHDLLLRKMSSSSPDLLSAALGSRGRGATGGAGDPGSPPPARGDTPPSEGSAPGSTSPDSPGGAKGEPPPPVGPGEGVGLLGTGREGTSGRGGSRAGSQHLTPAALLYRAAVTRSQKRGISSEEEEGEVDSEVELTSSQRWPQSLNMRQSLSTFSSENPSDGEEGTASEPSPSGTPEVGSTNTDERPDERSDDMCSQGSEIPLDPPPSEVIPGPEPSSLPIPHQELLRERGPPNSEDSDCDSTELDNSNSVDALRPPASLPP
Chain of TRAF2 and NCK-interacting protein kinase (Homo sapiens) (Q9UKE5 whole entry, looked up): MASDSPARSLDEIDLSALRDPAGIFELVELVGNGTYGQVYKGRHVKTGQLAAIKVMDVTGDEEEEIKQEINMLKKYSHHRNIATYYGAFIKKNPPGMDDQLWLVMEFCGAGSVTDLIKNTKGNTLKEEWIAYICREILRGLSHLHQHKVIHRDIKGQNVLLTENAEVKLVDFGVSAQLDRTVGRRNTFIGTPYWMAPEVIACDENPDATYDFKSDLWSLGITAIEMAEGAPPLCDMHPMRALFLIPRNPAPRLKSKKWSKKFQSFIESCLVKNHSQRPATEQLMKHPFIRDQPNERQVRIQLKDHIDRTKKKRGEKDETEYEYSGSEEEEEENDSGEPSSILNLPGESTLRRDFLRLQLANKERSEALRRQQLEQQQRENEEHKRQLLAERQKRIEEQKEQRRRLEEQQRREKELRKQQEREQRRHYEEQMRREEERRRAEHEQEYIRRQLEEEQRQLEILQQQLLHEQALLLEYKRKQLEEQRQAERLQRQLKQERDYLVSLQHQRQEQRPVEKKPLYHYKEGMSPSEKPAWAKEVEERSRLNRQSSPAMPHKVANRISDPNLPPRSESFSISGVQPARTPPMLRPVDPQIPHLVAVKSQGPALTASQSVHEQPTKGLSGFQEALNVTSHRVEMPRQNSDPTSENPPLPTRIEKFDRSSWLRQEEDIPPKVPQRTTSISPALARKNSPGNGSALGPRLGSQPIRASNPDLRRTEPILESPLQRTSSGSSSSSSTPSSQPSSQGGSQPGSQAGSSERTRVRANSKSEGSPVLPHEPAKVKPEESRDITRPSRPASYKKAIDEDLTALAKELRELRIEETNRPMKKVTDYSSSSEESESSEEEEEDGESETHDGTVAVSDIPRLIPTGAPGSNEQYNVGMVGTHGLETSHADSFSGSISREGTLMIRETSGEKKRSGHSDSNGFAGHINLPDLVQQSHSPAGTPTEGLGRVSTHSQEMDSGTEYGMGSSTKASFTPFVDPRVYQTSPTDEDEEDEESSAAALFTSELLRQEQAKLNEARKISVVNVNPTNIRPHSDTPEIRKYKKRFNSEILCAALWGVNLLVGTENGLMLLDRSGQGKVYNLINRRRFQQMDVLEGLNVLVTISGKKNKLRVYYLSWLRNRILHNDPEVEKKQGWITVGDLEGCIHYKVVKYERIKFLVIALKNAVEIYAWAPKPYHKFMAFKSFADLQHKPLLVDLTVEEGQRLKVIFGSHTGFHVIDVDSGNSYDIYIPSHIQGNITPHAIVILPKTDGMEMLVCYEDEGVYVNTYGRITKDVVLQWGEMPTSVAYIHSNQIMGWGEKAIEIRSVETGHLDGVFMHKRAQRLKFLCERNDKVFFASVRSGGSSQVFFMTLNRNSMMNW
Chain of Serine/threonine-protein kinase Nek7 (Homo sapiens) (Q8TDX7 whole entry, looked up): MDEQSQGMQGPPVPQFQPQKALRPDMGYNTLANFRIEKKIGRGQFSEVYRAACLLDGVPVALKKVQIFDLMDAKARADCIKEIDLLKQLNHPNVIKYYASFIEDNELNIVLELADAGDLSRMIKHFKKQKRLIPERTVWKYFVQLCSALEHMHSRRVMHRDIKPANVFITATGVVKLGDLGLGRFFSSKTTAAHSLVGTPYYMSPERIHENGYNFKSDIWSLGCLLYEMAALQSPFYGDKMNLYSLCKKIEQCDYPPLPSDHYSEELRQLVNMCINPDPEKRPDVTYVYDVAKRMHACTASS

C[C@@H]1CN(c2cc(-c3nn(C)c4ccc(OC5(C)CC5)cc34)ncn2)C[C@H](C)O1 [MLi-2-NC]
inactive: residual activity [1, 20] 76% | residual activity [2, 20] 84% | inhibition [3] -3.11% | residual activity [4, 20] 82% | residual activity [5, 20] 92% | residual activity [6, 20] 58% | residual activity [7, 20] 100% | residual activity [8, 20] 92% | residual activity [9, 20] 98% | residual activity [10, 20] 82% | residual activity [11, 20] 64% | residual activity [12, 20] 61% | inhibition [13] 10.2% | residual activity [14, 20] 100% | residual activity [15, 20] 63% | residual activity [16, 20] 79% | inhibition [17] 26.7% | residual activity [18, 20] 95% | residual activity [19, 20] 80%

C[C@@H]1CN(c2cc(-c3n[nH]c4ccc(OC5(C)CC5)cc34)ncn2)C[C@H](C)O1 [MLi-2]
inactive: residual activity [1, 21] 80% | residual activity [2, 21] 84% | inhibition [3] 4.35% | residual activity [4, 21] 89% | residual activity [5, 21] 67% | residual activity [6, 21] 64% | residual activity [7, 21] 93% | residual activity [8, 21] 56% | residual activity [9, 21] 99% | residual activity [10, 21] 98% | residual activity [11, 21] 72% | residual activity [12, 21] 82% | inhibition [13] 3.26% | residual activity [14, 21] 100% | residual activity [15, 21] 94% | residual activity [16, 21] 100% | inhibition [17] 41.4% | residual activity [18, 21] 82% | residual activity [19, 21] 100%
